How the values were obtained:
Dihydrofolate reductase [1] = biological target: T1, Dihydrofolate reductase (Bacillus anthracis, UniProt Q81R22); test: Inhibition of Bacillus anthracis DHFR
T1 sequence (Q81R22 whole entry): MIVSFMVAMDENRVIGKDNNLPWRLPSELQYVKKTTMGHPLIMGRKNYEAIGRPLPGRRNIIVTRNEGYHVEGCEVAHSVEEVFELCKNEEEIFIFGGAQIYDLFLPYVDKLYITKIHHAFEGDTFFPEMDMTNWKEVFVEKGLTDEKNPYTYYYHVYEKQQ

Dihydrofolate reductase [2] = biological target: T2, Dihydrofolate reductase (Homo sapiens, UniProt P00374); test: Inhibition of human DHFR
T2 sequence (P00374 whole entry): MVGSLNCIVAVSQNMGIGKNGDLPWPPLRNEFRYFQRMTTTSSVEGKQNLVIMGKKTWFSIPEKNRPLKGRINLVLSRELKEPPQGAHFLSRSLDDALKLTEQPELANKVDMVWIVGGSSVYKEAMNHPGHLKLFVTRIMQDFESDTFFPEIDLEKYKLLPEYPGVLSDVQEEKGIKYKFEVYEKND

Bacillus anthracis = test: Antibacterial activity against Bacillus anthracis; assay type: functional

| SMILES | IC50 (Dihydrofolate reductase [1]) [nM] | IC50 (Dihydrofolate reductase [2]) [nM] | MIC (Bacillus anthracis) [µg/mL] |
| --- | --- | --- | --- |
| CC[C@H]1c2ccccc2C=NN1C(=O)/C=C/c1cc(Cc2cnc(N)nc2N)cc(OC)c1OC | 96 | – | – |
| C=CC(=O)N1N=Cc2ccccc2C1CCC (stereo unspecified) | 46 | – | – |
| CCC[C@H]1c2ccccc2C=NN1C(=O)/C=C/c1cc(Cc2cnc(N)nc2N)cc(OC)c1OC | 54 | 110000 | ≤ 12.8 |
| CCCC[C@H]1c2ccccc2C=NN1C(=O)/C=C/c1cc(Cc2cnc(N)nc2N)cc(OC)c1OC | 170 | – | – |

Reference: ChEMBL document CHEMBL1649473, “Crystal structure of Bacillus anthracis dihydrofolate reductase with the dihydrophthalazine-based trimethoprim derivative RAB1 provides a structural explanation of potency and selectivity” (Antimicrob Agents Chemother, 2009)
